“And” between values parts separate entries of the source, which are not always exact repeats. Equal values may be shown once.
What was measured:
Type in all cases: functional
COLO 205 = experiment: Growth inhibition of human COLO 205 cells assessed as growth percentage at 10 uM incubated for 48 hrs by sulforhodamine B assay relative to control; details: read-out: Activity
UACC-62 = experiment: Growth inhibition of human UACC-62 cells assessed as growth percentage at 100 uM incubated for 48 hrs by sulforhodamine B assay relative to control; details: read-out: Activity
CCRF-CEM [1] = experiment: Growth inhibition of human CCRF-CEM cells assessed as growth percentage at 1 uM incubated for 48 hrs by sulforhodamine B assay relative to control; details: read-out: Activity
Malme-3M = experiment: Growth inhibition of human Malme-3M cells assessed as growth percentage at 100 uM incubated for 48 hrs by sulforhodamine B assay relative to control; details: read-out: Activity
NCI-H226 [2] = experiment: Growth inhibition of human NCI-H226 cells assessed as growth percentage at 10 uM incubated for 48 hrs by sulforhodamine B assay relative to control; details: read-out: Activity
U-251 [3] = experiment: Growth inhibition of human U-251 cells assessed as growth percentage at 1 uM incubated for 48 hrs by sulforhodamine B assay relative to control; details: read-out: Activity
U-251 [4] = experiment: Growth inhibition of human U-251 cells assessed as growth percentage at 10 uM incubated for 48 hrs by sulforhodamine B assay relative to control; details: read-out: Activity
OVCAR-3 [5] = experiment: Growth inhibition of human OVCAR-3 cells assessed as growth percentage at 1 uM incubated for 48 hrs by sulforhodamine B assay relative to control; details: read-out: Activity
U-251 [6] = experiment: Growth inhibition of human U-251 cells assessed as growth percentage at 0.1 uM incubated for 48 hrs by sulforhodamine B assay relative to control; details: read-out: Activity
NCI-H522 = experiment: Growth inhibition of human NCI-H522 cells assessed as growth percentage at 0.1 uM incubated for 48 hrs by sulforhodamine B assay relative to control; details: read-out: Activity
CCRF-CEM [7] = experiment: Growth inhibition of human CCRF-CEM cells assessed as growth percentage at 10 uM incubated for 48 hrs by sulforhodamine B assay relative to control; details: read-out: Activity
MDA-MB-435 [8] = experiment: Growth inhibition of human MDA-MB-435 cells assessed as growth percentage at 10 uM incubated for 48 hrs by sulforhodamine B assay relative to control; details: read-out: Activity
HCT-116 = experiment: Growth inhibition of human HCT-116 cells assessed as growth percentage at 10 uM incubated for 48 hrs by sulforhodamine B assay relative to control; details: read-out: Activity
PC-3 = experiment: Growth inhibition of human PC-3 cells incubated for 48 hrs by sulforhodamine B assay; details: for CC50: read-out: LC50 (the source's name)
NCI-H460 [9] = experiment: Growth inhibition of human NCI-H460 cells assessed as growth percentage at 1 uM incubated for 48 hrs by sulforhodamine B assay relative to control; details: read-out: Activity
SK-MEL-2 = experiment: Growth inhibition of human SK-MEL-2 cells incubated for 48 hrs by sulforhodamine B assay
MDA-MB-435 [10] = experiment: Growth inhibition of human MDA-MB-435 cells assessed as growth percentage at 100 uM incubated for 48 hrs by sulforhodamine B assay relative to control; details: read-out: Activity
MDA-MB-231 [11] = experiment: Growth inhibition of human MDA-MB-231/ATCC cells assessed as growth percentage at 1 uM incubated for 48 hrs by sulforhodamine B assay relative to control; details: read-out: Activity
LOX IMVI [12] = experiment: Growth inhibition of human LOX IMVI cells assessed as growth percentage at 10 uM incubated for 48 hrs by sulforhodamine B assay relative to control; details: read-out: Activity
TK-10 = experiment: Growth inhibition of human TK-10 cells assessed as growth percentage at 0.1 uM incubated for 48 hrs by sulforhodamine B assay relative to control; details: read-out: Activity
OVCAR-8 = experiment: Growth inhibition of human OVCAR-8 cells assessed as growth percentage at 1 uM incubated for 48 hrs by sulforhodamine B assay relative to control; details: read-out: Activity
NCI-H460 [13] = experiment: Growth inhibition of human NCI-H460 cells assessed as growth percentage at 0.1 uM incubated for 48 hrs by sulforhodamine B assay relative to control; details: read-out: Activity
SW-620 = experiment: Growth inhibition of human SW-620 cells assessed as growth percentage at 10 uM incubated for 48 hrs by sulforhodamine B assay relative to control; details: read-out: Activity
MDA-MB-435 [14] = experiment: Growth inhibition of human MDA-MB-435 cells incubated for 48 hrs by sulforhodamine B assay; details: for TGI: MDA-MB-435; for CC50: MDA-MB-435, read-out: LC50 (the source's name)
HT-29 = experiment: Growth inhibition of human HT-29 cells assessed as growth percentage at 100 uM incubated for 48 hrs by sulforhodamine B assay relative to control; details: read-out: Activity
BT-549 [15] = experiment: Growth inhibition of human BT-549 cells assessed as growth percentage at 100 uM incubated for 48 hrs by sulforhodamine B assay relative to control; details: read-out: Activity
LOX IMVI [16] = experiment: Growth inhibition of human LOX IMVI cells incubated for 48 hrs by sulforhodamine B assay
SR = experiment: Growth inhibition of human SR cells assessed as growth percentage at 0.1 uM incubated for 48 hrs by sulforhodamine B assay relative to control; details: read-out: Activity
BT-549 [17] = experiment: Growth inhibition of human BT-549 cells assessed as growth percentage at 0.01 uM incubated for 48 hrs by sulforhodamine B assay relative to control; details: read-out: Activity
HCC 2998 = experiment: Growth inhibition of human HCC 2998 cells assessed as growth percentage at 1 uM incubated for 48 hrs by sulforhodamine B assay relative to control; details: read-out: Activity
RXF 393 = experiment: Growth inhibition of human RXF 393 cells assessed as growth percentage at 0.1 uM incubated for 48 hrs by sulforhodamine B assay relative to control; details: read-out: Activity
UACC-257 = experiment: Growth inhibition of human UACC-257 cells assessed as growth percentage at 100 uM incubated for 48 hrs by sulforhodamine B assay relative to control; details: read-out: Activity
NCI-H226 [18] = experiment: Growth inhibition of human NCI-H226 cells assessed as growth percentage at 0.1 uM incubated for 48 hrs by sulforhodamine B assay relative to control; details: read-out: Activity
IGROV-1 = experiment: Growth inhibition of human IGROV-1 assessed as growth percent at 100 uM incubated for 48 hrs by sulforhodamine B assay relative to control; details: read-out: Activity
MDA-MB-231 [19] = experiment: Growth inhibition of human MDA-MB-231/ATCC cells assessed as growth percentage at 0.01 uM incubated for 48 hrs by sulforhodamine B assay relative to control; details: read-out: Activity
MCF7 [20] = experiment: Growth inhibition of human MCF7 cells assessed as growth percentage at 0.01 uM incubated for 48 hrs by sulforhodamine B assay relative to control; details: read-out: Activity
OVCAR-3 [21] = experiment: Growth inhibition of human OVCAR-3 cells assessed as growth percentage at 10 uM incubated for 48 hrs by sulforhodamine B assay relative to control; details: read-out: Activity
MCF7 [22] = experiment: Growth inhibition of human MCF7 cells assessed as growth percentage at 100 uM incubated for 48 hrs by sulforhodamine B assay relative to control; details: read-out: Activity

For `Nc1nc2[nH]c(CN3CCN(c4cc(Cl)cc(Cl)c4)CC3)c(CN3CCN(c4cc(Cl)cc(Cl)c4)CC3)c2c(=O)[nH]1`, the growth at 10 µM (COLO 205) was 10.9%, the growth at 100 µM (UACC-62) was -49% and the growth at 1 µM (CCRF-CEM [1]) was 87%. It also gave a growth at 100 µM (Malme-3M) of -42%, a growth at 10 µM (NCI-H226 [2]) of 96.5% and a growth at 1 µM (U-251 [3]) of 90%. For the same compound, the growth at 10 µM (U-251 [4]) was 36.6%, the growth at 1 µM (OVCAR-3 [5]) was 98% and the growth at 0.1 µM (U-251 [6]) was 97%. The growth at 0.1 µM (NCI-H522) was 97%, the growth at 10 µM (CCRF-CEM [7]) was 45.1% and the growth at 10 µM (MDA-MB-435 [8]) was 8.61%. It also gave a growth at 10 µM (HCT-116) of -10.2%, a GI50 (PC-3) of 1760 nM and a TGI (PC-3) of 3.89 µM. It also gave a CC50 (PC-3) of 8.61 µM, a growth at 1 µM (NCI-H460 [9]) of 98% and a GI50 (SK-MEL-2; Homo sapiens, SK-MEL-2, 48 h) of 2210 nM. It also gave a TGI (SK-MEL-2; Homo sapiens, SK-MEL-2, 48 h) of 4.12 µM, a growth at 100 µM (MDA-MB-435 [10]) of -80% and a growth at 1 µM (MDA-MB-231 [11]) of 101%. It also gave a growth at 10 µM (LOX IMVI [12]) of 26.3%, a growth at 0.1 µM (TK-10) of 103% and a growth at 1 µM (OVCAR-8) of 96%. It also gave a growth at 0.1 µM (NCI-H460 [13]) of 104%, a growth at 10 µM (SW-620) of -16.3% and a TGI (MDA-MB-435 [14]; Homo sapiens) of 3040 nM. It also gave a GI50 (MDA-MB-435 [14]; Homo sapiens, MDA-MB-435, 48 h) of 1620 nM, a CC50 (MDA-MB-435 [14]; Homo sapiens) of 5.72 µM and a growth at 100 µM (HT-29) of -70%. The growth at 100 µM (BT-549 [15]) was -37%, the GI50 (LOX IMVI [16]; Homo sapiens, LOX IMVI) was 1940 nM and the TGI (LOX IMVI [16]; Homo sapiens, LOX IMVI) was 3570 nM. The growth at 0.1 µM (SR) was 105%, the growth at 0.01 µM (BT-549 [17]) was 91% and the growth at 1 µM (HCC 2998) was 93%. The growth at 0.1 µM (RXF 393) was 89%, the growth at 100 µM (UACC-257) was -57% and the growth at 0.1 µM (NCI-H226 [18]) was 89%. For the same compound, the growth at 100 µM (IGROV-1) was -48%, the growth at 0.01 µM (MDA-MB-231 [19]) was 106% and the growth at 0.01 µM (MCF7 [20]) was 86%. The growth at 10 µM (OVCAR-3 [21]) was 89.7% and the growth at 100 µM (MCF7 [22]) was -48%.
For `CCCCCCCC(=O)Nc1nc2[nH]c(CN3CCN(Cc4cccc(F)c4)CC3)c(CN3CCN(Cc4cccc(F)c4)CC3)c2c(=O)[nH]1`, the growth at 10 µM (COLO 205) was -90.9%, the growth at 100 µM (UACC-62) was -90% and the growth at 1 µM (CCRF-CEM [1]) was -17%. For the same compound, the growth at 100 µM (Malme-3M) was -73%, the growth at 10 µM (NCI-H226 [2]) was 87.6% and the growth at 1 µM (U-251 [3]) was -88%. The growth at 10 µM (U-251 [4]) was -92.7%, the growth at 1 µM (OVCAR-3 [5]) was 44% and the growth at 0.1 µM (U-251 [6]) was 92%. It also gave a growth at 0.1 µM (NCI-H522) of 94%, a growth at 10 µM (CCRF-CEM [7]) of -25.8% and a growth at 10 µM (MDA-MB-435 [8]) of -98.1%. The growth at 10 µM (HCT-116) was -96.7%, the GI50 (PC-3) was 1300 nM and the TGI (PC-3) was 2.67 µM. For the same compound, the CC50 (PC-3) was 5.47 µM, the growth at 1 µM (NCI-H460 [9]) was 11% and the GI50 (SK-MEL-2; 48 h) was 1570 nM. For the same compound, the TGI (SK-MEL-2; 48 h) was 3.03 µM, the GI50 (SK-MEL-2; Homo sapiens, SK-MEL-2, 48 h) was 2210 nM and the TGI (SK-MEL-2; Homo sapiens, SK-MEL-2, 48 h) was 4.12 µM. The CC50 (SK-MEL-2; Homo sapiens, SK-MEL-2, read-out: LC50 (the source's name)) was 5.87 µM, the growth at 100 µM (MDA-MB-435 [10]) was -83% and the growth at 1 µM (MDA-MB-231 [11]) was 33%. It also gave a growth at 10 µM (LOX IMVI [12]) of -88.5%, a growth at 0.1 µM (TK-10) of 96% and a growth at 1 µM (OVCAR-8) of -66%. The growth at 0.1 µM (NCI-H460 [13]) was 105%, the growth at 10 µM (SW-620) was -78.5% and the GI50 (MDA-MB-435 [14]; 48 h) was 320 nM. The TGI (MDA-MB-435 [14]; Homo sapiens) was 1240 nM, the GI50 (MDA-MB-435 [14]; Homo sapiens, MDA-MB-435, 48 h) was 317 nM and the CC50 (MDA-MB-435 [14]; Homo sapiens) was 3.77 µM. The growth at 100 µM (HT-29) was -68%, the growth at 100 µM (BT-549 [15]) was -91% and the GI50 (LOX IMVI [16]) was 200 nM. For the same compound, the LC50 (concentration killing 50% of cells) (LOX IMVI [16]) was 8.87 µM and 0.89 µM, the TGI (LOX IMVI [16]) was 420 nM and the GI50 (LOX IMVI [16]; Homo sapiens, LOX IMVI) was 195 nM. The TGI (LOX IMVI [16]; Homo sapiens, LOX IMVI) was 416 nM, the growth at 0.1 µM (SR) was 88% and the growth at 0.01 µM (BT-549 [17]) was 110%. For the same compound, the growth at 1 µM (HCC 2998) was -33%, the growth at 0.1 µM (RXF 393) was 100% and the growth at 100 µM (UACC-257) was -91%. For the same compound, the growth at 0.1 µM (NCI-H226 [18]) was 95%, the growth at 100 µM (IGROV-1) was -70% and the growth at 0.01 µM (MDA-MB-231 [19]) was 105%. It also gave a growth at 0.01 µM (MCF7 [20]) of 91%, a growth at 10 µM (OVCAR-3 [21]) of -95% and a growth at 100 µM (MCF7 [22]) of -63%.

Source: ChEMBL document CHEMBL4673219, “Novel 5,6-disubstituted pyrrolo[2,3-d]pyrimidine derivatives as broad spectrum antiproliferative agents: Synthesis, cell based assays, kinase profile and molecular docking study” (Bioorg Med Chem, 2018)
